These results are taken from paper PMC4581228, “Membrane Affinity of Platensimycin and Its Dialkylamine Analogs” (International Journal of Molecular Sciences, 2015).

Data set [1] has as its system A98S MscS in the cytoplasmic membrane of E. coli. Kind of data set: Patch-clamp of A98S MscS in excised spheroplast patches (activation midpoint shift). To be noted: for Redistribution / return of activation midpoint: within the observation time, Supplementary Figure S4; for log Kmem (patch-clamp): x-intercept of midpoint shift (∆p0.5) vs. concentration, native E. coli membrane, cytoplasmic side. Here is the method: A pB10b vector was used to house and express the mscS gene in the triple-knockout E. coli strain MJF465 (mscS^−, mscL^−, mscK^−). The A98S MscS mutant, generated and partially characterized previously, was chosen for its higher sensitivity to inner leaflet drug partitioning.
Spheroplasts were generated as described previously. The experimental bath solution contained 400 mM sucrose, 200 mM KCl, 50 mM MgCl2, 5 mM CaCl2, and 5 mM HEPES and was titrated to pH 7.4 with KOH. Membrane patches were obtained on borosilicate glass pipettes and recorded at 30 mV pipette voltage set by a microelectrode amplifier. The midpoint of activation for channels in each patch was determined at two-minute intervals for the duration of the experiment via a 1 s ramp of saturating pressure. Analogs of platensimycin were pre-diluted in either ethanol or bath solution and perfused into the bath to achieve the desired concentration; control injections of equivalent volumes of ethanol had no effect on the midpoint of activation. Negative pressure (suction) was applied with the HSPC-1 high speed pressure clamp apparatus from ALA Scientific. Programming of the pressure protocols and data analysis was performed with the PClamp10 suite (Axon Instr., Foster City, CA, USA). The principle of lateral pressure measurements using two experimental systems, lipid monolayers and patch-clamp, is illustrated in Figure 1.
Similarly, the bulk-membrane partitioning coefficient (Kmem) was estimated from the values of relative increase in MscS activation pressure midpoint (p0.5) measured in patch-clamp experiments at different concentrations of intercalating agents by linear fit of Δp0.5 as a function of log(Cd).

The test system of data set [2] is Bacillus subtilis. To be noted: cited from earlier work; for MIC for B. subtilis: cultures of Bacillus subtilis, ref 22 (table title).
A short description of data set [3]: Langmuir monolayer pressure-area isotherms. To be noted: for log Klip @ 20 mN/m, Measured: E. coli polar lipid monolayer, pH 7.4, ~20 °C; for Effective Molec. Area (ad): area taken by the drug in the monolayer, from slopes of log(ΔArea) vs. surface pressure; for log Klip @ 35 mN/m, Corrected: corrected to the monolayer-bilayer equivalence pressure 35 mN/m (Equation 6). It is filed as physicochemical, E. coli. How it is done:
All Langmuir monolayer experiments were done with a two-barrier rectangular 22 cm × 6 cm trough (MicroTrough XS, Kibron Inc., Helsinki, Finland) placed in an Airclean hood. A Dyneprobe metal alloy needle was used as the Wilhelmy plate. Lipids used were E. coli total polar lipid extract from Avanti Polar Lipids (Alabaster, AL, USA) dissolved in chloroform or hexane to a final concentration of 0.2 mg/mL. Distribution of lipids onto the subphase was accomplished using a gastight 50 µL Hamilton® syringe (Hamilton, Reno, NV, USA). The subphase buffer was identical to the tensiometry buffer. Pressure—Area isotherms (monolayers) were performed at room temperature (~20 °C) from 114 to 18 cm^2 at a barrier rate of 20 mm/min. For each analog, isotherms were measured at least four times at every concentration.
In Langmuir experiments, the value of the bulk-monolayer (Klip) partitioning coefficient was determined in a similar way, using the deviations of surface pressure of monolayers measured at constant area. […] However, at this compression, strongly intercalating substances produced pressure shifts beyond the collapse pressure of 45–47 mN/m, which forced us to score Δπ from surface pressure of 20 mN/m achieved at ~80 Å^2/molecule. Klip1 obtained in this expanded state was than corrected for the lateral pressure increase from π1 = 20 to π2 = 35 mN/m, which has the same form as Equation (7) in [5]: (6) ln(Klip2)=ln(Klip1)−(π2−π1)adNA/RT
Here ad is the area taken by the drug in the plane of the monolayer.
To estimate ad we assumed equilibrium between the drug in the subphase and in the monolayer and equated its chemical potentials in the two phases: (7) μ0+RTln(χd)=μ0σ+RTln(χdσ)+π⋅adNA
The right part with indexes σ represents the surface parameters of standard chemical potential µ0σ and drug mole fraction χdσ , whereas the left part represents the bulk parameters. Defining lnKlip = µ0σ −µ0 one can rearrange this equation as (8) lnKlip−lnχdσ−lnχd=π⋅adNA/RT
Differentiating with respect to π gives (9) −RTd(lnχdσ)/NAdπ=ad
Thus the molecular area of the drug defines the slope of χdσ , with which the drug re-partitions back to the subphase as surface pressure π increases. We further assume that at a given surface pressure, insertion of nd drug molecules into the film comprised of nL lipid molecules with initial area A0, should dilate the film by ΔA. (10) nd/nL=ΔA/A0⋅aL/ad
The parameter aL, the area per lipid at that particular pressure, is taken from the control pressure-area isotherm with no drug. The mole fraction of the drug in the monolayer χdσ = nd/(nd + nL) is related to the extent of monolayer dilation ΔA (11) ΔA=ad⋅nd=adnL⋅χdσ/1−χdσ
On the assumption that χdσ is small, ΔA is proportional to the mole fraction of the drug. In Equation (4) we substitute and obtain (12) −kTd(lnΔA)/dπ=ad
Thus, the molecular area of the drug can be determined from the logarithmic slope of ΔA on surface pressure. Once we know ad, we can introduce a correction to Klip due to lateral pressure change ([…]). In addition, we can estimate the molar ratio of drug-to-lipid, the mole fraction χdσ and the partitioning constant. From the extent of monolayer dilation at a constant surface pressure (chosen to be 20 mN/m), the apparent bulk-monolayer partitioning coefficient Klip could be independently estimated as Klip=χdσ/χd , where […] = Cd/55 represents the drug mole fraction in the subphase.

Data set [4] relates to Bacillus subtilis. Kind of data set: Minimal inhibitory concentration with cultures of Bacillus subtilis. It is filed as cell-based. To be noted: in experiments; organism not given. The source says:
Principally, the efficacy of a drug depends on permeability (first selection), the degree of inhibition of the biological target, rates of drug efflux, drug breakdown, off target binding, and sequestration. In the case of platensimycin, the biological target is FabF. […] Details of docked conformations are presented in the Supplementary Figure S2A,B. Platensimycin and QD-11 show the same estimated binding affinity to FabF (C163Q) (PDB ID: 2GFX) and both are potent antibiotics. […] More specifically, platensimycin and myrtemycin were active against Gram-positive bacteria (S. aureus, MRSA; E. faecium, VRE and B. subtilis) and also Gram-negative bacteria, E. coli (but only when co-adminsitered with Phe-Arg-β-naphthylamide dihydrochloride, PAβND, which is a bacterial efflux pump inhibitor) as described in [18]. For the purpose of comparison with the computational docking predictions, here we present data for B. subtilis.
The bottom row in Table 1 presents minimal inhibitory concentrations (MIC) for all of the substances assayed with gram-positive and gram-negative bacteria. […] Despite the fact that the heterocyclic G271 partitioned into the membrane very well, and can be docked well into FabF, it had virtually no antimicrobial activity.

A short description of data set [5]: Tensiometry at the air-water interface (Wilhelmy method). The data set is classed as physicochemical. To be noted: for log KAW (tens.): air-water partitioning coefficient, tensiometry, buffer pH 7.4; for Concentration at which changes of surface tension were detected: detected only at this concentration. How it is done: Surface tensions of subphase solutions with varying concentrations of platensimycin analogs were quantified using the Wilhelmy method with a piece of filter paper (Whatman, No. 1, 10.5 mm wide and 0.25 mm thick) used as a probe. The subphase buffer consisted of 200 mM KCl, 10 mM MgCl2, 5 mM CaCl2, 5 mM HEPES (Sigma-Aldrich, St. Louis, MO, USA) titrated to a pH of 7.4 with KOH. The pressure sensor (model 601, NIMA, Coventry, UK) was calibrated using a 100 mg weight. Water surface tension was measured to be […], after calibration. […] The surface activity and values for molecular area at the surface of the air-water interface (As), the partition coefficient at the air-water interface of the surface active molecule (KAW), and the membrane partitioning coefficient (Kmem), were determined as described previously.
The analysis of interfacial adsorption data was performed in the general framework of the Gibbs equation (1) dπ=∑Γidμi where dπ represents a small change in surface pressure, Γi is surface excess of component i and dμi is the small change of chemical potential of that component in the aqueous phase. For one adsorbing component, in an ideal case the Gibbs isotherm takes the form (2) dπ=RTΓd ln C where surface excess is defined as the surface density of molecules Γ = 1/(NAaS), NA is Avogadro’s number and aS is the area requirement for the molecule at the surface. The adsorbing substance gradually saturates the surface; the process that can be approximated by a Langmuir isotherm: (3) Γ=Γ∞lnKAW⋅C/1+KAW⋅C
Thus, beyond a certain bulk concentration, Γ approaches a constant value of Γ∞ and in that range of concentrations a linear relationship holds: (4) Γ∞=(1/RT)dπ/d ln C
To evaluate the partition coefficient for an air-water interface (KAW) and monolayers (Klip), the integral form of this equation attributed to Szyszkowski and previously applied to monolayers by Seelig and coworkers was used: (5) π=RTΓ∞ln(KAWC+1)
As was shown in Suomolainen 2004 [5], the x-intercept of the fitting line of experimental π-lnC curve would approximate the inverse partitioning coefficient 1/KAW, measured at the air-water interface.

A further data set concerns S. aureus, MRSA. Set-up: method as in PMID 17707686. To be noted: Gram-positive; cited from earlier work.
The next data set deals with E. faecium, VRE. Also noted: method as in PMID 17707686. To be noted: Gram-positive; cited from earlier work.
The next data set relates to E. coli. Set-up: method as in PMID 17707686. To be noted: Gram-negative; only when co-administered with Phe-Arg-β-naphthylamide dihydrochloride (PAβND), efflux pump inhibitor; cited from earlier work.

A value given as a limit tells only on which side of the number the result lay.

Regarding `O=C(CCN(Cc1cccnc1)Cc1cccnc1)Nc1c(O)ccc(C(=O)O)c1O` [G258], the “Redistribution / return of activation midpoint” value (“Redistribution / return” for short) in data set [1] is listed as “relatively fast”. In the data set with Bacillus subtilis [2], the “MIC for B. subtilis” value was >512 µg/mL. Moreover, in data set [3], the “log Klip @ 20 mN/m, Measured” value is given as 5.9; the “Effective Molec. Area (ad)” value is 18 Å^2; the “log Klip @ 35 mN/m, Corrected” value came to 5.6. Further, the “Biological / antibiotic activity” value in the data set with Bacillus subtilis [4] is “essentially no biological activity”. Further, in data set [5], the “log KAW (tens.)” value came to 4.2 and the “Concentration at which changes of surface tension were detected” value is recorded as 10^−4 M.

Turning to `Cn1ccnc1CN(CCC(=O)Nc1c(O)ccc(C(=O)O)c1O)Cc1nccn1C` [G262], the “Redistribution / return” value in data set [1] is on record as “did not return back”. Also, the “MIC for B. subtilis” value in the data set on Bacillus subtilis [2] is >512 µg/mL. Besides, in data set [3], the “log Klip @ 20 mN/m, Measured” value was 5.9; the “Effective Molec. Area (ad)” value worked out at 17 Å^2; the “log Klip @ 35 mN/m, Corrected” value amounted to 5.6. The “Biological / antibiotic activity” value in the data set on Bacillus subtilis [4] was “essentially no biological activity”. Further, in data set [5], the “log KAW (tens.)” value was 4.2 and the “Concentration at which changes of surface tension were detected” value is 10^−4 M.

For `O=C(CCN(Cc1ccc2c(c1)OCO2)Cc1ccc2c(c1)OCO2)Nc1c(O)ccc(C(=O)O)c1O` [G271], in data set [1], the “Redistribution / return” value is recorded as “did not return back” and the “log Kmem (patch-clamp)” value came out at 6.1. In the data set with Bacillus subtilis [2], the “MIC for B. subtilis” value is >512 µg/mL. For the same compound, in data set [3], the “log Klip @ 20 mN/m, Measured” value amounted to 6.1; the “Effective Molec. Area (ad)” value came out at 18 Å^2; the “log Klip @ 35 mN/m, Corrected” value was 5.8. The “Biological / antibiotic activity” value with Bacillus subtilis [4] was “no antibiotic activity”. The “log KAW (tens.)” value in data set [5] worked out at 4.5.

For `CC12C[C@@]34C=CC(=O)[C@@](C)(CCC(=O)Nc5c(O)ccc(C(=O)O)c5O)C3[C@H](CC1C4)O2` (stereo partly drawn) [PL, platensimycin], in the data set on S. aureus, MRSA, the “Activity against S. aureus, MRSA” value is on record as “active”. Also, in data set [1], the “log Kmem (patch-clamp)” value worked out at 5.0. Moreover, in the data set with E. faecium, VRE, the “Activity against E. faecium, VRE” value is “active”. Besides, the “Activity against E. coli” value in the data set with E. coli is given as “active”. The “Activity against B. subtilis” value in the data set with Bacillus subtilis [2] (Gram-positive) is reported as “active”. For the same compound, the “MIC for B. subtilis” value in the data set with Bacillus subtilis [2] is recorded as 2 µg/mL. In data set [3], the “log Klip @ 20 mN/m, Measured” value came out at 6.6; the “Effective Molec. Area (ad)” value was 34 Å^2; the “log Klip @ 35 mN/m, Corrected” value was determined as 6.1. For the same compound, the “Effective Molec. Area (ad)” value in data set [3] (listed as platensimycin) was 31–34 Å^2. For the same compound, the “log KAW (tens.)” value in data set [5] came to 4.6. Further, the “Effect on surface tension” value in data set [5] (up to 30 µM) is recorded as “no visible effect”.

Consider `CCCCN(CCCC)CCC(=O)Nc1c(O)ccc(C(=O)O)c1O` [QD-06], for which the “log Kmem (patch-clamp)” value in data set [1] is recorded as 5.5. Also, in the data set on Bacillus subtilis [2], the “MIC for B. subtilis” value is listed as 128 µg/mL. Besides, in data set [3], the “log Klip @ 20 mN/m, Measured” value is reported as 5.0; the “Effective Molec. Area (ad)” value stood at 30 Å^2; the “log Klip @ 35 mN/m, Corrected” value is on record as 4.5. In data set [5], the “log KAW (tens.)” value was found to be 4.1.

Regarding `CC1(C)C2CC=C(CNCCC(=O)Nc3c(O)ccc(C(=O)O)c3O)C1C2` (stereo not drawn) [QL-03], the “log Kmem (patch-clamp)” value in data set [1] amounted to 6.1. The “MIC for B. subtilis” value in the data set on Bacillus subtilis [2] was >256 µg/mL. Besides, in data set [3], the “log Klip @ 20 mN/m, Measured” value came out at 5.6; the “Effective Molec. Area (ad)” value is on record as 28 Å^2; the “log Klip @ 35 mN/m, Corrected” value came to 5.2. Moreover, the “log KAW (tens.)” value in data set [5] was found to be 5.0.
